From US20110214194A1 (priority 2005, published 2011)

What was measured:
peritoneal macrophages [1] = assay type: cell-based, mouse
type I IFN = assay type: cell-based, mouse; conditions: Heedless macrophages, 100 ng/ml, 4 hours
NF-κB, ERK1 and ERK2 = experiment: Immunoblot analysis of IκB and ERK (p42/44) phosphorylation in macrophages; assay type: cell-based, mouse; conditions: Heedless macrophages, lipid A 100 ng/ml
IRF-3 = experiment: Immunoblot analysis of IRF-3 activation in macrophages; assay type: cell-based, mouse; conditions: heedless mutant cells, lipid A 100 ng/ml
peritoneal macrophages [2] = conditions: Trif mutant macrophages; cited from earlier work

| Substance | TNF production in response to the inducer: effect of the Heedless mutation (peritoneal macrophages [1]) | further results |
| --- | --- | --- |
| MALP-2 | partial impairment of the response | – |
| Pam2CSK4 | partial impairment of the response | – |
| Pam3CSK4 | normal | – |
| lipid A | – | signaling via the MyD88-independent pathway (type I IFN production): effect of the Heedless mutation (type I IFN): prevented; activation of NF-κB and phosphorylation of ERK1 and ERK2 (NF-κB, ERK1 and ERK2): occurred normally; formation of the IRF-3 phosphodimer (IRF-3): not detected; lipid A-induced TNF production (peritoneal macrophages [2]): rather severe impairment |
| lipoteichoic acid | partial impairment of the response | – |
| poly IC | normal | – |
